Data on eleven molecules can be found in ChEMBL document CHEMBL1201862, “PubChem BioAssay data set” (2004).

SMILES strings stand for the structures.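 Briefly, cells in 96-well plates were exposed to five compound concentrations for 48 h, and endpoints were estimated by linear interpolation. GI50 = concentration required for 50% inhibition of growth.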 Calls of active or inactive are those of the source. Cut-off read from the data, not from the text of the source: active = GI50 up to about 1.1 µM and inactive = higher.

Some test systems named below: BT-549; EKVX; HCT-116; Hs-578T; IGROV-1; KM12; MDA-MB-435; OVCAR-3; OVCAR-4; OVCAR-5; PC-3; RXF 393; SK-MEL-5; SK-OV-3; SN12C; SNB-19; SR; NCI-H460; UACC-62; HCC 2998.
What all share (assay): NCI anticancer screen, dose series, 48 h

Take `Cc1csc(NCc2ccc(Cl)cc2)n1`: the GI50 with BT-549 is 62.7 µM (inactive); in the experiment with EKVX it was 32.7 µM (inactive); in the experiment on HCT-116, 38.6 µM (inactive); with Hs-578T, 54.7 µM (inactive); with IGROV-1, 45.9 µM (inactive); in the experiment on KM12 it was 56.1 µM (inactive). The GI50 with MDA-MB-435 was 52.2 µM (inactive); in the experiment with OVCAR-3, 44.7 µM (inactive); in the experiment with OVCAR-4, 37 µM (inactive); in the experiment with OVCAR-5, > 100 µM (inactive); in the experiment on PC-3, 37.8 µM (inactive); in the experiment with RXF 393 it was 25.4 µM (inactive). Also, the GI50 in the experiment on SK-MEL-5 was 23.7 µM (inactive); in the experiment on SK-OV-3 it was > 100 µM (inactive); with SN12C, 81.5 µM (inactive); in the experiment on SNB-19, 75.2 µM (inactive); with SR, 36.1 µM (inactive).

For `Sc1nnc(SCc2ccccc2Cl)c2nc[nH]c12`, the GI50 with BT-549 is > 100 µM (inactive); in the experiment with EKVX it was 74.8 µM (inactive); in the experiment on HCT-116 it was > 100 µM (inactive); in the experiment on Hs-578T, > 100 µM (inactive); with IGROV-1, > 100 µM (inactive); in the experiment on KM12, > 100 µM (inactive). The GI50 with MDA-MB-435, with NCI-H460, with OVCAR-3, with OVCAR-4, in the experiment with OVCAR-5 and in the experiment with PC-3 was > 100 µM (inactive) in each case. The GI50 in the experiment on RXF 393, in the experiment on SK-MEL-5, in the experiment on SK-OV-3, in the experiment with SN12C, with SNB-19 and in the experiment on SR was > 100 µM (inactive) each time. The GI50 with UACC-62 was > 100 µM (inactive).

As to `Cn1cc[n+](-c2cc(=O)n(C)c(=O)[n-]2)c1`, the GI50 in the experiment on BT-549 was > 100 µM (inactive); in the experiment on EKVX, 49.9 µM (inactive); with HCT-116 it was > 100 µM (inactive); in the experiment with Hs-578T, 42.8 µM (inactive); in the experiment with IGROV-1, > 100 µM (inactive); in the experiment on KM12, > 100 µM (inactive). The GI50 with MDA-MB-435 was > 100 µM (inactive); with NCI-H460, > 100 µM (inactive); with OVCAR-3, 80 µM (inactive); in the experiment on OVCAR-4, 94.4 µM (inactive); in the experiment on OVCAR-5 it was > 100 µM (inactive); in the experiment on PC-3, > 100 µM (inactive). The GI50 was > 100 µM (inactive) in the experiment with RXF 393; 97.7 µM (inactive) in the experiment with SK-MEL-5; > 100 µM (inactive) in the experiment with SK-OV-3; > 100 µM (inactive) in the experiment with SN12C; > 100 µM (inactive) with SNB-19; 27.9 µM (inactive) with SR. Further, the GI50 in the experiment on UACC-62 is > 100 µM (inactive).

As for `Nc1ccc(-c2nnc(-c3c(Cl)c(Cl)c(Cl)c(Cl)c3-c3nc4cc(C(=O)c5ccccc5)ccc4[nH]3)o2)cc1`, the GI50 with BT-549 was 24.6 µM (inactive); in the experiment on EKVX, 28.6 µM (inactive); in the experiment on HCT-116, 20.6 µM (inactive); in the experiment with Hs-578T, 28 µM (inactive); with IGROV-1 it was 28.5 µM (inactive); with KM12 it was 27.9 µM (inactive). The GI50 is 4.95 µM (inactive) with MDA-MB-435; 21 µM (inactive) in the experiment with OVCAR-3; 24.5 µM (inactive) in the experiment with OVCAR-4; 37.9 µM (inactive) with OVCAR-5; 16.6 µM (inactive) in the experiment on PC-3; 10.9 µM (inactive) with RXF 393. The GI50 was 11.1 µM (inactive) in the experiment on SK-MEL-5; 26.1 µM (inactive) with SK-OV-3; 16.8 µM (inactive) with SN12C; 27.2 µM (inactive) in the experiment on SNB-19; 5.16 µM (inactive) in the experiment on SR.

`COc1ccc(C2C(C#N)=C(S)N(C3OC(CO)C(O)C(O)C3O)C(c3ccccc3)=C2C(C)=O)cc1` (stereo unspecified): the GI50 in the experiment with BT-549 is > 100 µM (inactive); with HCC 2998 it was 92 µM (inactive); in the experiment on HCT-116 it was 70.6 µM (inactive); in the experiment on Hs-578T it was 45.3 µM (inactive); with IGROV-1 it was > 100 µM (inactive); in the experiment on KM12 it was > 100 µM (inactive). In addition, the GI50 is 32.6 µM (inactive) in the experiment on MDA-MB-435; 88.1 µM (inactive) with NCI-H460; 22.2 µM (inactive) in the experiment on OVCAR-3; > 10 µM (inactive) with OVCAR-4; > 100 µM (inactive) in the experiment with OVCAR-5; 48.2 µM (inactive) in the experiment on PC-3. The GI50 with RXF 393 was > 100 µM (inactive); in the experiment with SK-MEL-5, 25.1 µM (inactive); in the experiment on SN12C, > 100 µM (inactive); in the experiment with SNB-19, 89.3 µM (inactive); in the experiment with SR, 40.3 µM (inactive); in the experiment on UACC-62 it was 58.6 µM (inactive).

With `C#CCOC(=O)c1ccccc1OC(C)=O`, the GI50 in the experiment on BT-549, in the experiment on EKVX, in the experiment on HCT-116, in the experiment on Hs-578T, in the experiment with IGROV-1 and with KM12 was > 100 µM (inactive) each time. Also, the GI50 in the experiment on MDA-MB-435, with NCI-H460, in the experiment on OVCAR-4, with OVCAR-5, in the experiment with PC-3 and with RXF 393 was > 100 µM (inactive) in each case. Further, the GI50 with SK-MEL-5, in the experiment on SK-OV-3, with SN12C, in the experiment with SNB-19, in the experiment with SR and in the experiment on UACC-62 was > 100 µM (inactive) each time.

Consider `COc1ccc(NC(=O)N(C)CC2(O)CCC(C(C)(C)C)CC2)cc1` (stereo unspecified), for which the GI50 in the experiment on BT-549 is 63.4 µM (inactive); with EKVX it was 56.4 µM (inactive); in the experiment on HCT-116 it was 83.4 µM (inactive); in the experiment on Hs-578T it was 33.9 µM (inactive); in the experiment with IGROV-1, > 100 µM (inactive); with KM12, 42.7 µM (inactive). Also, the GI50 in the experiment with MDA-MB-435 was 57.1 µM (inactive); in the experiment on NCI-H460 it was 59.6 µM (inactive); in the experiment on OVCAR-3, 23 µM (inactive); in the experiment with OVCAR-4, 66.2 µM (inactive); with OVCAR-5, > 100 µM (inactive); with PC-3, 14.7 µM (inactive). The GI50 was 24.8 µM (inactive) in the experiment with RXF 393; 80.9 µM (inactive) in the experiment with SK-OV-3; > 100 µM (inactive) in the experiment on SN12C; > 100 µM (inactive) in the experiment on SNB-19; > 100 µM (inactive) in the experiment with SR; 35.5 µM (inactive) with UACC-62.

For the molecule `C[Si](C)(C)C#Cc1cc(-c2nc3ccccc3s2)ccc1N`, the GI50 in the experiment with BT-549 is 18.3 µM (inactive); in the experiment on EKVX, 12 µM (inactive); in the experiment with HCT-116, 13.7 µM (inactive); with Hs-578T, 20.8 µM (inactive); in the experiment on IGROV-1, < 0.01 µM (active); in the experiment with KM12, 15.2 µM (inactive). The GI50 with MDA-MB-435 is 18.3 µM (inactive); with NCI-H460, 15.9 µM (inactive); in the experiment on OVCAR-3, 17.3 µM (inactive); in the experiment with OVCAR-4, 14.9 µM (inactive); with OVCAR-5, 16.5 µM (inactive); in the experiment with PC-3, 16.2 µM (inactive). The GI50 with RXF 393 is 17.5 µM (inactive); with SK-MEL-5 it was 15.5 µM (inactive); in the experiment with SK-OV-3 it was 19 µM (inactive); in the experiment on SN12C, 15.5 µM (inactive); with SNB-19, 18.7 µM (inactive); in the experiment on SR it was 26.4 µM (inactive). Besides, the GI50 in the experiment with UACC-62 is 16.3 µM (inactive).

As to `C=CCCC(=O)C(=[N+]=[N-])C(=O)CCC(=O)c1ccccc1`, the GI50 in the experiment on BT-549, in the experiment with EKVX, in the experiment with Hs-578T, in the experiment on IGROV-1, in the experiment on MDA-MB-435 and in the experiment with NCI-H460 was > 10 µM (inactive) each time. The GI50 in the experiment on OVCAR-3, in the experiment with OVCAR-5, in the experiment on PC-3, with RXF 393, in the experiment on SK-MEL-5 and in the experiment on SK-OV-3 was > 10 µM (inactive) in each case. The GI50 with SN12C, in the experiment with SNB-19, in the experiment on SR and in the experiment with UACC-62 was > 10 µM (inactive) throughout.

As to `CCNC(=O)c1c(O)nc2ccccc2c1O`, the GI50 in the experiment on BT-549 was 78.2 µM (inactive); in the experiment with EKVX it was 32.3 µM (inactive); in the experiment on HCC 2998 it was > 100 µM (inactive); in the experiment on HCT-116 it was 51.1 µM (inactive); with Hs-578T, 40.5 µM (inactive); in the experiment with IGROV-1 it was 39.4 µM (inactive). Further, the GI50 in the experiment on KM12 is 97.7 µM (inactive); with MDA-MB-435 it was 59.7 µM (inactive); in the experiment with NCI-H460, 34.9 µM (inactive); in the experiment on OVCAR-3, 61.9 µM (inactive); in the experiment on OVCAR-4 it was 70.6 µM (inactive); in the experiment with OVCAR-5, 42.4 µM (inactive). Further, the GI50 was 49.9 µM (inactive) with PC-3; 22.1 µM (inactive) with RXF 393; 43.5 µM (inactive) with SK-MEL-5; 67.6 µM (inactive) in the experiment on SN12C; 83.9 µM (inactive) with SNB-19; 25.5 µM (inactive) with SR.

Turning to `COc1ccc(/N=N/c2c(C)c(C#N)c(=S)n(C3OC(CO)C(O)C(O)C3O)c2C)cc1` (stereo unspecified), the GI50 was 32.7 µM (inactive) in the experiment with BT-549; 31.6 µM (inactive) with HCT-116; 41.4 µM (inactive) in the experiment on Hs-578T; 54.1 µM (inactive) with IGROV-1; 73.1 µM (inactive) with KM12; 38.8 µM (inactive) in the experiment on MDA-MB-435. Moreover, the GI50 was 35 µM (inactive) in the experiment on NCI-H460; 34.4 µM (inactive) with OVCAR-3; 57.4 µM (inactive) with OVCAR-4; > 100 µM (inactive) with OVCAR-5; 31.5 µM (inactive) in the experiment with PC-3; > 100 µM (inactive) in the experiment with RXF 393. Moreover, the GI50 was 14.5 µM (inactive) in the experiment on SK-MEL-5; > 100 µM (inactive) in the experiment with SK-OV-3; 38.3 µM (inactive) in the experiment on SNB-19; 23.4 µM (inactive) in the experiment on SR; 30.4 µM (inactive) in the experiment on UACC-62.
